A short description of this series: Stability test (influencing factors: high temperature/humidity and strong light irradiation), total impurities. In kind it is physicochemical. On the procedure:
A suitable amount of the crystal of the compound of formula (I) prepared in Example 4 was accurately weighed, and methanol was then added thereto to dissolve the crystal. It was diluted quantitatively to obtain a solution containing about 50 μg of the compound per 1 ml of the solution. 10 μl of the solution was accurately measured and injected into the liquid chromatograph, and the chromatogram was recorded. In addition, a suitable amount of the compound of formula (I) was weighed as a control, and measured by the same method as described in the above. The purity was calculated through external standard method based on peak areas.
Referring to the test method of influencing factors for raw materials described in the Chinese Pharmacopoeia, 2010 edition, Part II, Appendix XIX C, a high-temperature experiment (40° C.±2° C. and a relative humidity of 75%±5%) and strong light irradiation experiment (4500l×±500l×) were conducted on the crystal of the compound of formula (I) prepared in Example 4 for 10 days, respectively. Samples were taken on day 0 and day 10 to measure a total amount of impurities and determine the stability.

Consider `Cn1c(Nc2ccc(I)cc2Cl)c(C(=O)NOCCO)c2occc2c1=O` [6-(2-chloro-4-iodophenylamino)-N-(2-hydroxylethyoxyl)-5-methyl-4-oxo-4,5-dihydrofuro[3,2-c]pyridine-7-carboxamide], for which the “Total amount of impurities (%)” value amounted to 0.60% (At 40° C., 10 days (40° C.±2° C., relative humidity 75%±5%)); 0.57% (Day 0); 0.68% (Irradiation for 10 days (strong light, 4500l×±500l×)).

Source of the values: patent publication US10023582B2, “6-aryl amino pyridone formamide compound crystal and preparation method therefor” (Chia Tai Tianqing Pharmaceutical Group Co., Ltd., priority 2014, dated 2018).
